{
  "source": "patent US10519152B2",
  "about": "“Compounds and their use in treating cancer” (AstraZeneca AB, priority 2017, dated 2019)",
  "target": "T1, Estrogen Receptor (ERα) in MCF-7 human ductal carcinoma breast cell line (Homo sapiens, UniProt P03372)",
  "T1 construct": "endogenous in cells; host or cells: MCF-7",
  "T1 sequence (P03372 1-595)": "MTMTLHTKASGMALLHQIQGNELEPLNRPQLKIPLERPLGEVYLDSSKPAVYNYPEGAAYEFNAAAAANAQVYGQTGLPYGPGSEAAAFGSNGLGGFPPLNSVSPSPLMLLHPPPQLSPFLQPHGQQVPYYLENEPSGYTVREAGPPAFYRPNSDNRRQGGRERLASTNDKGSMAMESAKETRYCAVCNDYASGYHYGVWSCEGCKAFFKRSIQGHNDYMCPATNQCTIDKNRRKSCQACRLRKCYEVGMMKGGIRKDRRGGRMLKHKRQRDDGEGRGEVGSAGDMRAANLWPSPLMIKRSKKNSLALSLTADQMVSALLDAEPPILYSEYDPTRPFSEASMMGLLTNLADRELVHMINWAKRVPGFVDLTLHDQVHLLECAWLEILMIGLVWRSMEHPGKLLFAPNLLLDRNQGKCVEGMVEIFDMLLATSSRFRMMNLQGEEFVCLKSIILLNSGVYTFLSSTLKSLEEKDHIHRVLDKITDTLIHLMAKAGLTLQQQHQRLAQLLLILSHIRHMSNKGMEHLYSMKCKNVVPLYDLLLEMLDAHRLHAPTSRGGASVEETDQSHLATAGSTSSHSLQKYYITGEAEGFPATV",
  "test": "MCF-7 ER degradation assay (cell based immuno-fluorescence)",
  "conditions": "MCF-7 cells; for ER degradation ≥ 90% at 0.3 μM: ER degradation by fulvestrant at 0.3 μM is defined as 100%; for DC50: 18-22 hours incubation, 50% reduction of ERα expression, single experiment or average of two or more, read-out: MCF-7 ER degradation IC50",
  "in_short": "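MCF-7 human ductal carcinoma breast cells were seeded at 3.75×10^4 cells per mL (40 μL per well) in 384 well plates with phenol red free DMEM containing 2 mM L-Glutamine and 5% (v/v) Charcoal/Dextran treated foetal calf serum. After overnight culture, compounds were acoustically dispensed, incubated 18-22 hours, then cells were formaldehyde-fixed and immunostained for ERα.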",
  "data": [
    {"molecule": "Cc1ncsc1-c1ccc([C@H](C)NC(=O)[C@@H]2C[C@@H](O)CN2C(=O)[C@@H](NC(=O)COCCOCCOCCOc2cc(F)c([C@@H]3c4[nH]c5ccccc5c4C[C@@H](C)N3CC(C)(C)F)c(F)c2)C(C)(C)C)cc1", "note": "[Example 3, (2S,4R)-1-((S)-2-(tert-Butyl)-14-(3,5-difluoro-4-((1R,3R)-2-(2-fluoro-2-methylpropyl)-3-methyl-2,3,4,9-tetrahydro-1H-pyrido[3,4-b]indol-1-yl)phenoxy)-4-oxo-6,9,12-trioxa-3-azatetradecanoyl)-4-hydroxy-N—((S)-1-(4-(4-methylthiazol-5-yl)phenyl)ethyl)pyrrolidine-2-carboxamide]", "values": [
      {"measurement": "ER degradation ≥ 90% at 0.3 μM", "result": "••"},
      {"measurement": "DC50", "result": 0.3, "unit": "nM"}
    ]},
    {"molecule": "Cc1ncsc1-c1ccc(CNC(=O)[C@@H]2C[C@@H](O)CN2C(=O)[C@@H](NC(=O)COCc2ccc(OCCOc3cc(F)c([C@@H]4c5[nH]c6ccccc6c5C[C@@H](C)N4CC(C)(C)F)c(F)c3)cc2)C(C)(C)C)cc1", "note": "[Example 4, (2S,4R)-1-((S)-2-(2-((4-(2-(3,5-Difluoro-4-((1R,3R)-2-(2-fluoro-2-methylpropyl)-3-methyl-2,3,4,9-tetrahydro-1H-pyrido[3,4-b]indol-1-yl)phenoxy)ethoxy)benzyl)oxy)acetamido)-3,3-dimethylbutanoyl)-4-hydroxy-N-(4-(4-methylthiazol-5-yl)benzyl)pyrrolidine-2-carboxamide]", "values": [
      {"measurement": "ER degradation ≥ 90% at 0.3 μM", "result": "•"},
      {"measurement": "DC50", "result": 2.1, "unit": "nM"}
    ]},
    {"molecule": "Cc1ncsc1-c1ccc(CNC(=O)[C@@H]2C[C@@H](O)CN2C(=O)[C@@H](NC(=O)COCCOCCOCCOCC(=O)Nc2ccc([C@@H]3c4[nH]c5ccccc5c4C[C@@H](C)N3CC(C)(C)F)cc2)C(C)(C)C)cc1", "note": "[Example 55, N^1-(4-((1R,3R)-2-(2-fluoro-2-methylpropyl)-3-methyl-2,3,4,9-tetrahydro-1H-pyrido[3,4-b]indol-1-yl)phenyl)-N^14—((S)-1-((2S,4R)-4-hydroxy-2-((4-(4-methylthiazol-5-yl)benzyl)carbamoyl)pyrrolidin-1-yl)-3,3-dimethyl-1-oxobutan-2-yl)-3,6,9,12-tetraoxatetradecanediamide, Trifluoroacetic Acid]", "values": [
      {"measurement": "ER degradation ≥ 90% at 0.3 μM", "result": "•"},
      {"measurement": "DC50", "result": 1.2, "unit": "nM"}
    ]},
    {"molecule": "Cc1ncsc1-c1ccc(CNC(=O)[C@@H]2C[C@@H](O)CN2C(=O)[C@@H](NC(=O)COCCOCCOCCOCCOCC(=O)Nc2ccc([C@@H]3c4[nH]c5ccccc5c4C[C@@H](C)N3CC(C)(C)F)cc2)C(C)(C)C)cc1", "note": "[Example 56, N^1-(4-((1R,3R)-2-(2-fluoro-2-methylpropyl)-3-methyl-2,3,4,9-tetrahydro-1H-pyrido[3,4-b]indol-1-yl)phenyl)-N^17—((S)-1-((2S,4R)-4-hydroxy-2-((4-(4-methylthiazol-5-yl)benzyl)carbamoyl)pyrrolidin-1-yl)-3,3-dimethyl-1-oxobutan-2-yl)-3,6,9,12,15-pentaoxaheptadecanediamide, Trifluoroacetic Acid]", "values": [
      {"measurement": "ER degradation ≥ 90% at 0.3 μM", "result": "••"},
      {"measurement": "DC50", "result": 1.5, "unit": "nM"}
    ]},
    {"molecule": "Cc1ncsc1-c1ccc(CNC(=O)[C@@H]2C[C@@H](O)CN2C(=O)[C@@H](NC(=O)COCCOCCOCC(=O)Nc2ccc([C@@H]3c4[nH]c5ccccc5c4C[C@@H](C)N3CC(C)(C)F)cc2)C(C)(C)C)cc1", "note": "[Example 57, (2S,4R)-1-((S)-2-(tert-butyl)-14-((4-((1R,3R)-2-(2-fluoro-2-methylpropyl)-3-methyl-2,3,4,9-tetrahydro-1H-pyrido[3,4-b]indol-1-yl)phenyl)amino)-4,14-dioxo-6,9,12-trioxa-3-azatetradecanoyl)-4-hydroxy-N-(4-(4-methylthiazol-5-yl)benzyl)pyrrolidine-2-carboxamide, Trifluoroacetic Acid]", "values": [
      {"measurement": "ER degradation ≥ 90% at 0.3 μM", "result": "•"},
      {"measurement": "DC50", "result": 0.9, "unit": "nM"}
    ]}
  ]
}
